Reference: patent US8389557B2, “Triazole derivatives useful as Axl inhibitors” (Rigel Pharmaceuticals, Inc., priority 2005, dated 2013)
Values belong to the molecule of their own block, whether it stands above or below them.

Target: T1, Axl (Homo sapiens, UniProt P30530)
T1 construct: endogenous in cells; host or cells: HeLa cells
T1 sequence (P30530 26-894): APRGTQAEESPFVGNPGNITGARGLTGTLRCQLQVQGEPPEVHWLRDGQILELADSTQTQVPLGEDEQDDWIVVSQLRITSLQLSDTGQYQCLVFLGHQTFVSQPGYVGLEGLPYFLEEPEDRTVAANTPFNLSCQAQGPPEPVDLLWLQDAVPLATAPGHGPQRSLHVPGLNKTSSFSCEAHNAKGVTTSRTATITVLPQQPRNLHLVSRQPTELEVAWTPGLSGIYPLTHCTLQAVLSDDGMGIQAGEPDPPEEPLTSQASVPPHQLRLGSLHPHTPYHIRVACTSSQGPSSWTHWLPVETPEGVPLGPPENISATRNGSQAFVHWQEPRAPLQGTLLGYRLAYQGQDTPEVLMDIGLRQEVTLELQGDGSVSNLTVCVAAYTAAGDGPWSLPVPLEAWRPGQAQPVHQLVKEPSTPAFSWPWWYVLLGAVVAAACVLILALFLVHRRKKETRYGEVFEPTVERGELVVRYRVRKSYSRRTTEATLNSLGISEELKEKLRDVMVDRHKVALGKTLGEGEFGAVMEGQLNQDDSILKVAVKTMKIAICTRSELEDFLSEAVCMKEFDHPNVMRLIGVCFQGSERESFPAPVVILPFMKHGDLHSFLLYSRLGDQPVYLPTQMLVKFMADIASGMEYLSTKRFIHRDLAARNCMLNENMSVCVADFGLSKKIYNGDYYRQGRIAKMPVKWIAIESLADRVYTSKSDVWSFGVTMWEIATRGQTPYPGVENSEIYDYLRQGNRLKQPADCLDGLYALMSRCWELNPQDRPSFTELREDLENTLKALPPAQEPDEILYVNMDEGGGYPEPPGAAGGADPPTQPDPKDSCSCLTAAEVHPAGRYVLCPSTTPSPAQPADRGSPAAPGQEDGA
Experiment: Phospho-Akt in-cell Western assay (inhibition of Axl activity)
Assay type: cell-based
In short: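 HeLa cells on poly-L-lysine, starved 24 h in 0.5% FCS DMEM with Axl/Fc 500 ng/mL, pre-treated with compound 1 h at 37° C. Axl stimulated 5 min by anti-Axl/anti-mouse antibody cross-linking. Fixed cells probed with anti-phospho-Akt and HRP secondary, chemiluminescence read.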

[1] = Table 5, Hela cells, Axl antibody cross-linking stimulation, phospho-Akt chemiluminescence
[2] = inhibition of Axl activity, Table 1
[3] = Table 3, Hela cells, Axl antibody cross-linking stimulation, phospho-Akt chemiluminescence
[4] = inhibition of Axl activity, phospho-Akt in-cell Western assay, Table 1

IC50 [2]: 1000 to 10000 nM
Structure (SMILES): COc1ccc(C(=O)n2nc(Nc3ccc4c(c3)OCCO4)nc2N)cc1C [compound 257, 5-amino-3-(1,4-benzodioxan-6-yl)amino-1-(3-methyl-4-methoxy)phenylcarbonyl-1H-1,2,4-triazole]

IC50 [2]: 1000 to 10000 nM
Structure (SMILES): Cc1cc(C(=O)n2nc(Nc3ccc4c(c3)OCCO4)nc2N)ccc1OC(C)C [compound 258, 5-amino-3-(1,4-benzodioxan-6-yl)amino-1-(3-methyl-4-iso-propoxy)phenylcarbonyl-1H-1,2,4-triazole]

IC50 [1]: > 20000 nM
Structure (SMILES): Cc1cccc(C(=O)n2nc(Nc3ccc4sncc4c3)nc2N)c1 [compound 259, 5-amino-3-(1,2-benzisothiazol-5-yl)amino-1-(3-methylphenyl)carbonyl-1H-1,2,4-triazole]

IC50 [1]: > 20000 nM
Structure (SMILES): Cc1cccc(C(=O)n2nc(Nc3ccc4snc(C)c4c3)nc2N)c1 [compound 260, 5-amino-3-(3-methyl-1,2-benzisothiazol-5-yl)amino-1-(3-methylphenyl)carbonyl-1H-1,2,4-triazole]

IC50 [4]: < 1000 nM
Structure (SMILES): Nc1nc(Nc2ccc(OCCN3CCCC3)c(F)c2)nn1C(=O)c1ccc(N2CCOCC2)cc1 [compound 262, 5-amino-3-[4-[2-(pyrrolidin-1-yl)ethoxy]-3-fluorophenyl]amino-1-[4-(morpholin-4-yl)phenyl]carbonyl-1H-1,2,4-triazole]

IC50 [4]: 1000 to 10000 nM
Structure (SMILES): CC(C)(C)c1ccc(C(=O)n2nc(Nc3cccc(-c4cnco4)c3)nc2N)cc1 [compound 263, 5-amino-1-(4-(tert-butyl)phenyl)carbonyl-3-[3-(1,3-oxazol-5-yl)phenylamino]-1H-1,2,4-triazole]

IC50 [3]: < 1000 nM
Structure (SMILES): Nc1nc(Nc2ccc(OCCN3CCOCC3)cc2)nn1C(=O)c1ccc2cc[nH]c2c1 [compound 265, 5-amino-1-(1H-indol-6-yl)carbonyl-3-[4-[2-(morpholin-4-yl)ethoxy]phenylamino]-1H-1,2,4-triazole]

IC50 [4]: < 1000 nM
Structure (SMILES): Nc1nc(Nc2ccc(OCCN3CCCC3)cc2)nn1C(=O)c1ccc(Oc2ccccc2)cc1 [compound 269, 5-amino-1-(4-(phenoxy)phenyl)carbonyl-3-[4-[2-(pyrrolidin-1-yl)ethoxy]phenylamino]-1H-1,2,4-triazole]

IC50 [1]: > 20000 nM
Structure (SMILES): CC(C)(C)OC(=O)NC1CCOc2ccc(Nc3nc(N)n(C(=O)c4ccc(C(C)(C)C)cc4)n3)cc21 (centres unmarked) [compound 273]

IC50 [1]: > 20000 nM
Structure (SMILES): CC(C)(C)OC(=O)NC1CCOc2ccc(Nc3nc(N)n(C(=O)c4ccc(OC(C)(C)C)cc4)n3)cc21 (centres unmarked) [compound 275]

IC50 (Table 9, Hela cells, Axl antibody cross-linking stimulation, phospho-Akt chemiluminescence): 1000 to 10000 nM
Structure (SMILES): CC(C)(C)OC(=O)NC1CCOc2ccc(Nc3nc(N)n(C(=O)c4ccc5cc[nH]c5c4)n3)cc21 (centres unmarked) [compound 276]

IC50 [4]: < 1000 nM
Structure (SMILES): Nc1nc(Nc2ccc(OCCN3CCCC3)cc2)nn1C(=O)c1ccc(-c2ccccc2)cc1 [compound 277, 5-amino-1-(4-(phenyl)phenyl)carbonyl-3-[4-[2-(pyrrolidin-1-yl)ethoxy]phenylamino]-1H-1,2,4-triazole]

IC50 [3]: < 1000 nM
Structure (SMILES): Cc1ccsc1C(=O)n1nc(Nc2ccc(OCCN3CCCC3)cc2)nc1N [compound 283, 5-amino-1-(3-methylthien-2-yl)carbonyl-3-[4-[2-(pyrrolidin-1-yl)ethoxy]phenylamino]-1H-1,2,4-triazole]

IC50 [3]: < 1000 nM
Structure (SMILES): Cc1ccc(C(=O)n2nc(Nc3ccc(OCCN4CCCC4)cc3)nc2N)s1 [compound 284, 5-amino-1-(5-methylthien-2-yl)carbonyl-3-[4-[2-(pyrrolidin-1-yl)ethoxy]phenylamino]-1H-1,2,4-triazole]

IC50 [3]: < 1000 nM
Structure (SMILES): Nc1nc(Nc2ccc(OCCN3CCCC3)cc2)nn1C(=O)c1cccs1 [compound 285, 5-amino-1-(thien-2-yl)carbonyl-3-[4-[2-(pyrrolidin-1-yl)ethoxy]phenylamino]-1H-1,2,4-triazole]

The next lines start with the molecule.

Structure (SMILES): Cc1cccc(C(=O)n2nc(Nc3nc4ccccc4s3)nc2N)c1 [compound 256, 5-amino-3-(benzothiazol-2-yl)amino-1-(3-methylphenyl)carbonyl-1H-1,2,4-triazole]
IC50 [1]: > 20000 nM

Structure (SMILES): CC(=O)n1nc(Nc2ccc3c(c2)OCCO3)nc1N [compound 261, 1-Acetyl-5-amino-3-(1,4-benzodioxan-6-yl)amino-1H-1,2,4-triazole]
IC50 [3]: > 20000 nM

Structure (SMILES): CC(C)(C)Oc1ccc(C(=O)n2nc(Nc3cccc(-c4cnco4)c3)nc2N)cc1 [compound 264, 5-amino-1-(4-(tert-butoxy)phenyl)carbonyl-3-[3-(1,3-oxazol-5-yl)phenylamino]-1H-1,2,4-triazole]
IC50 [4]: 1000 to 10000 nM

Structure (SMILES): CC(C)(C)c1ccc(C(=O)n2nc(Nc3ccc(OCCN4CCOCC4)cc3)nc2N)cc1 [compound 266, 5-amino-1-(4-(tert-butyl)phenyl)carbonyl-3-[4-[2-(morpholin-4-yl)ethoxy]phenylamino]-1H-1,2,4-triazole]
IC50 [4]: < 1000 nM

Structure (SMILES): CC(C)(C)Oc1ccc(C(=O)n2nc(Nc3ccc(OCCN4CCOCC4)cc3)nc2N)cc1 [compound 267, 5-amino-1-(4-(tert-butoxy)phenyl)carbonyl-3-[4-[2-(morpholin-4-yl)ethoxy]phenylamino]-1H-1,2,4-triazole]
IC50 [4]: < 1000 nM

Structure (SMILES): Nc1nc(Nc2ccc(OCCN3CCCC3)cc2)nn1C(=O)c1ccc(-n2ccnc2)cc1 [compound 268, 5-amino-1-(4-(imidazol-1-yl)phenyl)carbonyl-3-[4-[2-(pyrrolidin-1-yl)ethoxy]phenylamino]-1H-1,2,4-triazole]
IC50 [4]: < 1000 nM

Structure (SMILES): CC(C)(C)OC(=O)Nc1ccc(C(=O)n2nc(Nc3ccc(OCCN4CCCC4)cc3)nc2N)cc1 [compound 270, 5-amino-1-(4-(tert-butoxycarbonylamino)phenyl)carbonyl-3-[4-[2-(pyrrolidin-1-yl)ethoxy]phenylamino]-1H-1,2,4-triazole]
IC50 [4]: < 1000 nM

Structure (SMILES): Nc1nc(Nc2ccc(OCCN3CCCC3)cc2)nn1C(=O)c1ccc2ncsc2c1 [compound 271, 5-amino-1-(benzo[d]thiazol-6-yl)carbonyl-3-[4-[2-(pyrrolidin-1-yl)ethoxy]phenylamino]-1H-1,2,4-triazole]
IC50 [3]: 1000 to 10000 nM

Structure (SMILES): CN(c1ccc(OCCN2CCCC2)cc1)c1nc(N)n(C(=O)c2ccc(OC(C)(C)C)cc2)n1 [compound 272, 5-amino-1-(4-(tert-butoxy)phenyl)carbonyl-3-[4-[2-(pyrrolidin-1-yl)ethoxy]phenyl][methyl]amino-1H-1,2,4-triazole]
IC50 [4]: > 20000 nM

Structure (SMILES): CC(C)Oc1ccc(C(=O)n2nc(Nc3ccc4c(c3)C(NC(=O)OC(C)(C)C)CCO4)nc2N)cc1 (centres unmarked) [compound 274]
IC50 [1]: > 20000 nM

Structure (SMILES): CC(C)(C)OC(=O)NCc1ccc(C(=O)n2nc(Nc3ccc(OCCN4CCCC4)cc3)nc2N)cc1 [compound 278, 5-amino-1-[4-((tert-butoxycarbonyl)aminomethyl)phenyl]carbonyl-3-[4-[2-(pyrrolidin-1-yl)ethoxy]phenylamino]-1H-1,2,4-triazole]
IC50 [4]: < 1000 nM

Structure (SMILES): Nc1nc(Nc2ccc(OCCN3CCCC3)cc2)nn1C(=O)c1ccc(-c2csnn2)cc1 [compound 280, 5-amino-1-(4-(1,2,3-thiadiazol-4-yl)phenyl)carbonyl-3-[4-[2-(pyrrolidin-1-yl)ethoxy]phenylamino]-1H-1,2,4-triazole]
IC50 [4]: < 1000 nM

Structure (SMILES): Nc1nc(Nc2ccc(OCCN3CCCC3)cc2)nn1C(=O)c1ccc2nn[nH]c2c1 [compound 281, 5-amino-1-(1H-benzo[d][1,2,3]triazol-5-yl)carbonyl-3-[4-[2-(pyrrolidin-1-yl)ethoxy]phenylamino]-1H-1,2,4-triazole]
IC50 [3]: 10000 to 20000 nM

Structure (SMILES): Nc1nc(Nc2ccc(OCCN3CCCC3)cc2)nn1C(=O)c1ccc(-n2cccc2)cc1 [compound 282, 5-amino-1-(4-(pyrrol-1-yl)phenyl)carbonyl-3-[4-[2-(pyrrolidin-1-yl)ethoxy]phenylamino]-1H-1,2,4-triazole]
IC50 [4]: < 1000 nM

Structure (SMILES): CNc1ccc(C(=O)n2nc(Nc3ccc(OCCN4CCCC4)cc3)nc2N)cc1 [compound 286, 5-amino-1-(4-(methylamino)phenyl)carbonyl-3-[4-[2-(pyrrolidin-1-yl)ethoxy]phenylamino]-1H-1,2,4-triazole]
IC50 [4]: < 1000 nM

Structure (SMILES): CSc1ccc(C(=O)n2nc(Nc3ccc(OCCN4CCCC4)cc3)nc2N)cc1 [compound 287, 5-amino-1-(4-(methylthio)phenyl)carbonyl-3-[4-[2-(pyrrolidin-1-yl)ethoxy]phenylamino]-1H-1,2,4-triazole]
IC50 [4]: < 1000 nM

Structure (SMILES): Nc1nc(Nc2ccc(OCCN3CCCC3)cc2)nn1C(=O)c1ccc2ncccc2c1 [compound 288, 5-amino-1-(quinolin-6-yl)carbonyl-3-[4-[2-(pyrrolidin-1-yl)ethoxy]phenylamino]-1H-1,2,4-triazole]
IC50 [3]: < 1000 nM
